Read-outs that look alike come from different tables or passages of the source.

Common to all, as to format: cell-based
In one series the target is T1, human ANO6 (variant 5) (Homo sapiens, UniProt Q4KMQ2).
T1 construct: expressed in transfected cells; host or cells: Fisher rat thyroid (FRT) cells
T1 sequence (Q4KMQ2 1-931 isoform Q4KMQ2-2): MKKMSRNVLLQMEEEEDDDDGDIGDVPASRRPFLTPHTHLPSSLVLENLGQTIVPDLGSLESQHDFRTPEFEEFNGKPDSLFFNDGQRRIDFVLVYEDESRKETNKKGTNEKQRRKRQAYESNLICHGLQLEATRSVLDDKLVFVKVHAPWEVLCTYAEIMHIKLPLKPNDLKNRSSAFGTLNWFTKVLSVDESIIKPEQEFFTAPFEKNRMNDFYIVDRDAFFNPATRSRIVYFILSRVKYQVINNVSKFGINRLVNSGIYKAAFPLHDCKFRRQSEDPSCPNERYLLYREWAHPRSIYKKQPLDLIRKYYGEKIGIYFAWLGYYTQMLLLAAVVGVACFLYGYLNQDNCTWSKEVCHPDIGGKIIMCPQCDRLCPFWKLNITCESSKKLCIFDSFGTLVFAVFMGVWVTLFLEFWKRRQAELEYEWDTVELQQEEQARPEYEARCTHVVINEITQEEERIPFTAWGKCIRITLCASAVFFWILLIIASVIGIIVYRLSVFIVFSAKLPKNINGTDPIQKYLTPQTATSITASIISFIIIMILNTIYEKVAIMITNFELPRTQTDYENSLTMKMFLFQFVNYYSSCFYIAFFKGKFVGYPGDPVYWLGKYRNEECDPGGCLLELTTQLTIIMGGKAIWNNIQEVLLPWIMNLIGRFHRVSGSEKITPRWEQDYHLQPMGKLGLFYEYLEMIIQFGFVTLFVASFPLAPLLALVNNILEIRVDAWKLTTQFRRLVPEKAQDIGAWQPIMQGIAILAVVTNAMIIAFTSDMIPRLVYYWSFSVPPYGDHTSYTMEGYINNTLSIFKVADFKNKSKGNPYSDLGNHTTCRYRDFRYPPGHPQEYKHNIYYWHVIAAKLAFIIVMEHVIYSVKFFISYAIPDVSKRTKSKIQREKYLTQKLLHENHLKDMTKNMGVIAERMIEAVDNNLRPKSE
As to the kind of experiment: Lact C2 assay (phosphatidylserine externalization scramblase function). To be noted: FRT cells expressing human ANO6, ionomycin 10 μM, read-out: % Inhibition (phosphatidylserine externalization inhibitory activity); for inhibition at 0.05 µM: 50 nM. The protocol:
Experimental Example 2: Lact C2 Assay (Measuring Phosphatidylserine Externalization Scramblase Function)
Ionomycin (Alomonelab, cat. #I-700), DAPI (Sigma-Aldrich, cat. #D8417), paraformaldehyde (Biosesang, cat. #P2031), Lionheart FX automated fluorescence microscope (BioTek), Gen5™ software program (BioTek), and Image J analysis software program.
Fisher rat thyroid (FRT) cells expressing human ANO6 (variant 5; GenBank accession no. NP_001191732.1) were cultured at 37 °C under 5% CO2 conditions in DMEM/Ham's F-12 (1:1) medium supplemented with 10% Fetal Bovine Serum, 2 mM […], 100 units/mL penicillin, and 100 μg/mL streptomycin.
Fischer Rat Thyroid (FRT) cells (2×10^4 cells/well) expressing human ANO6 (variant 5) were cultured in a 96-well microplate for 24 hours. After the incubation, the cells were treated with compounds dissolved in DMSO to 1% v/v in each well at each concentration (50 nM, 100 nM, and 1 μM) and reacted for 10 minutes. Thereafter, each well was treated with ionomycin to a final concentration of 10 μM, allowed to react for 10 minutes, and then washed with 200 μL PBS. After washing, each well was treated with 50 μL of Lactadherin-C2 (Lact-C2)-GFP mixed in DMEM medium to a final concentration of 500 nM to stain phosphatidylserine, and cultured at 37 °C for 10 minutes. After completion of the reaction, the cells were washed with 200 μL PBS, and fixed with 4% paraformaldehyde for 5 minutes at room temperature. For morphological analysis, DAPI solution was added, and the cells were incubated for 15 minutes, followed by washing with PBS. The fluorescence intensity of Lact-C2-GFP bound to phosphatidylserine on the cell surface was measured using an automated fluorescence microscope. For quantitative analysis of the fluorescence intensity of Lact-C2-GFP, BioTek Gen5™ software and Image J analysis software programs were used.
Phosphatidylserine externalization inhibitory activity (%) by the compound was calculated through the following analysis method. Specifically, the background fluorescence value was subtracted from the measured Lact-C2-GFP fluorescence value, and the fluorescence value of the ionomycin non-treatment group and the ionomycin-treatment group in the same row where each test group was located in a 96-well microplate were calculated. In order to calculate the inhibitory activity (%) by the compound, the relative inhibitory activity was calculated by setting the compound and ionomycin non-treatment group to 100% inhibitory activity and the ionomycin alone treatment group to 0% inhibitory activity. To derive the results, the test was repeated three times, and the average values of the results were classified according to the range below and shown in Table 4 below (A: >60% inhibition, B: 30 to 60% inhibition, N/A: no test).

Series [1] in a line: Cell viability measurement (MTS), Vero cells. To be noted: monkey. The protocol: Experimental Example 3: Cell Viability Measurement
Vero cell line (VERO01WCB-1201, Ministry of Food and Drug Safety, Republic of Korea), Calu-3 cell line (KCLB #30055, Korea Cell Line Bank (KCLB), Republic of Korea), CellTiter 96® AQueous One Solution Cell Proliferation Assay kit (Promega, cat. #G3582), and Infinite M200 microplate reader (Tecan).
Vero cells were cultured at 37 °C and 5% CO2 in DMEM medium supplemented with 10% fetal bovine serum, 100 units/mL penicillin, and 100 μg/mL streptomycin.
Vero cells or Calu-3 cells were seeded in 96-well microplates and cultured for 24 hours until the cell confluency reached 20%. After the incubation, compounds were treated in DMSO at concentrations (1, 3, and 10 μM) to reach 0.5% v/v in each well, and reacted at 37 °C for 48 hours. Into each well of the incubated 96-well microplate, 3-(4,5-dimethylthiazol-2-yl)-5-(3-carboxymethoxyphenyl)-2-(4-sulfophenyl)-2H-tetrazolium salt (MTS) assay solution [CellTiter 96® AQueous One Solution Cell Proliferation Assay kit (Promega)] mixed with DMEM medium at a ratio of 1:5, was dispensed at 100 μL/well and incubated at 37 °C for 1 hour. The 490 nm and 690 nm absorbance was then measured using an Infinite M200 instrument.
The cell viability (also, referred to as cell survival rate) (%) by compound treatment was calculated using the following analysis method. The 690 nm background absorbance value was subtracted from the measured 490 nm absorbance value. Then, to obtain the cell viability of each test group, the viability of the DMSO-treated group that was not treated with the compound was set to 100% and then the relative viability 1 of each compound was calculated. Two to six repeated tests were performed to obtain the results, and the mean values of the results were categorized into the following ranges and shown in Table 5 below (A: 80% survived, B: 50-80% survived, N/A: not tested)

A short description of series [2]: Cell viability measurement (MTS), Calu-3 cells. To be noted: human. Put shortly:
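Calu-3 cells at about 20% confluency treated with compounds at 1, 3 and 10 μM (0.5% v/v DMSO) for 48 h at 37 °C. MTS added for 1 h; A490 minus A690 background, normalized to DMSO control as 100%; mean of 2–6 repeats, binned into viability ranges.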

Series [3] concerns Severe Acute Respiratory Syndrome Coronavirus Type 2. As to the kind of experiment: microbe, parasite or virus in culture. To be noted: Vero, 10 uM, virus strain NCCP-43344, 48 hours, read-out: Virus replication inhibition efficacy.
For series [4] the test system is unchanged. As to the kind of experiment: microbe, parasite or virus in culture. The following applies: Calu-3, 10 uM, virus strain NCCP-43344, 48 hours, read-out: Virus replication inhibition efficacy.

On to `FC(F)(F)c1ccc2nc(-c3cccc(NC4CCC(c5cccnn5)CC4)c3)[nH]c2c1` (mixture of isomers) [Example 124, N-(4-(pyridazin-3-yl)cyclohexyl)-3-(6-(trifluoromethyl)-1H-benzo[d]imidazol-2-yl)aniline], for which the inhibition (in general, the percentage by which the read-out fell short of the control) at 1 µM on human ANO6 (variant 5) lay within 30 to 60%.

Regarding `c1cc(Nc2ccc(-c3ccncn3)cc2)cc(-c2nc3ccccc3[nH]2)c1` [Example 22, N-[3-(1H-benzo[d]imidazol-2-yl)phenyl]-4-(pyrimidin-4-yl)aniline], in series [1], the viability (as a rule, a per cent measure of how many cells are alive, often set against a control) at 48 h, 1 µM was over 80%; the viability at 48 h, 3 µM was over 80%; the viability at 48 h, 10 µM was 50 to 80%. The molecule further showed a viability at 48 h, 1 µM in series [2] of over 80%. In series [3], the inhibition at 10 µM was over 60%. Besides, the inhibition at 10 µM in series [4] is over 60%.

Turning to `FC(F)(F)c1ccc2nc(-c3cccc(Nc4ccc(-c5cccnn5)cc4)c3)[nH]c2c1` [Example 23, N-(4-(pyridazin-3-yl)phenyl)-3-(6-(trifluoromethyl)-1H-benzo[d]imidazol-2-yl)aniline], the viability at 48 h, 1 µM in series [1] and in series [2] was over 80% in each case. For the same molecule, the viability at 48 h, 3 µM in series [1] is over 80%; in series [2], 50 to 80%. The inhibition at 10 µM in series [3] and in series [4] was over 60% throughout.

For the molecule `FC(F)(F)c1ccc2nc(-c3cccc(Nc4ccc(-c5ccncn5)cc4)c3)[nH]c2c1` [Example 24, N-(4-(pyrimidin-4-yl)phenyl)-3-(6-(trifluoromethyl)-1H-benzo[d]imidazol-2-yl)aniline], the viability at 48 h, 1 µM in series [1] and in series [2] was over 80% in each case. Moreover, in series [1], the viability at 48 h, 3 µM is over 80%. Besides, the inhibition at 10 µM in series [3] and in series [4] was over 60% throughout.

`c1cnc(-c2ccc(Nc3cccc(-c4nc5ccccc5[nH]4)c3)cc2)nc1` [Example 26, N-[3-(1H-benzo[d]imidazol-2-yl)phenyl]-4-(pyrimidin-2-yl)aniline]: in series [1], the viability at 48 h, 1 µM was over 80% and the viability at 48 h, 10 µM is over 80%. In series [2], this molecule showed a viability at 48 h, 1 µM of over 80% and a viability at 48 h, 3 µM of 50 to 80%. Moreover, the inhibition at 10 µM in series [3] was over 60%. The inhibition at 10 µM in series [4] is over 60%.

`Fc1ccc2nc(-c3cccc(Nc4ncc(-c5cccnn5)cn4)c3)[nH]c2c1` [Example 51, N-(3-(6-fluoro-1H-benzo[d]imidazol-2-yl)phenyl)-5-(pyridazin-3-yl)pyrimidin-2-amine]: on human ANO6 (variant 5), the inhibition at 0.05 µM is 30 to 60%. For the same molecule, in series [2], the viability at 48 h, 1 µM is over 80%; the viability at 48 h, 3 µM is over 80%; the viability at 48 h, 10 µM was over 80%.

For `COc1cc2nc(-c3cccc(Nc4ncc(-c5cccnn5)cn4)c3)[nH]c2cc1F` [Example 121, N-[3-(6-fluoro-5-methoxy-1H-benzo[d]imidazol-2-yl)phenyl]-5-pyridazin-3-yl-pyrimidin-2-amine], the inhibition at 1 µM at human ANO6 (variant 5) fell in the range of 30 to 60%.

Turning to `Fc1cc2nc(-c3cccc(Nc4ncc(-c5ccccn5)cn4)c3)[nH]c2cc1F` [Example 313, N-(3-(5,6-difluoro-1H-benzo[d]imidazol-2-yl)phenyl)-5-(pyridin-2-yl)pyrimidin-2-amine], on human ANO6 (variant 5), the inhibition at 0.05 µM was over 60% and the inhibition at 1 µM is over 60%. In series [2], this molecule registered a viability at 48 h, 10 µM of over 80%.

On to `Fc1ccc2nc(-c3cccc(Nc4cnc(-c5ccccn5)cn4)c3)[nH]c2c1` [Example 323, N-(3-(6-fluoro-1H-benzo[d]imidazol-2-yl)phenyl)-5-(pyridin-2-yl)pyrazin-2-amine], for which, at human ANO6 (variant 5), the inhibition at 0.05 µM is 30 to 60% and the inhibition at 1 µM was over 60%. This molecule also showed a viability at 48 h, 10 µM in series [2] of over 80%.

On to `Clc1ccc2nc(-c3cccc(Nc4cnc(-c5ccccn5)cn4)c3)[nH]c2c1` [Example 324, N-(3-(6-chloro-1H-benzo[d]imidazol-2-yl)phenyl)-5-(pyridin-2-yl)pyrazin-2-amine], for which, at human ANO6 (variant 5), the inhibition at 0.05 µM was in the range of 30 to 60% and the inhibition at 1 µM is over 60%. The same molecule returned a viability at 48 h, 10 µM in series [2] of over 80%.

For the molecule `FC(F)(F)Oc1ccc2nc(-c3cccc(Nc4cnc(-c5ccccn5)cn4)c3)[nH]c2c1` [Example 325, 5-(pyridin-2-yl)-N-(3-(6-(trifluoromethoxy)-1H-benzo[d]imidazol-2-yl)phenyl)pyrazin-2-amine], at human ANO6 (variant 5), the inhibition at 1 µM was over 60%.

As for `FC(F)(F)c1cc2[nH]c(-c3cccc(Nc4cnc(-c5ccccn5)cn4)c3)nc2cn1` [Example 328, 5-(pyridin-2-yl)-N-(3-(6-(trifluoromethyl)-1H-imidazo[4,5-c]pyridin-2-yl)phenyl)pyrazin-2-amine], the inhibition at 1 µM at human ANO6 (variant 5) is over 60%.

Regarding `FC(F)Oc1ccc2nc(-c3cccc(Nc4ccc(-c5cccnn5)cc4)c3)[nH]c2c1` [Example 335, 3-(6-(difluoromethoxy)-1H-benzo[d]imidazol-2-yl)-N-(4-(pyridazin-3-yl)phenyl)aniline], on human ANO6 (variant 5), the inhibition at 0.05 µM is over 60% and the inhibition at 1 µM is over 60%.

For the origin of these results see patent US20260364068A1, “ANTIVIRAL USE OF HETEROARYL DERIVATIVE COMPOUND” (UIF (University Industry Foundation), Yonsei University, priority 2022, published 2026).
